The test system of experiment [1] is HCT-116. The experiment in a line: Antiproliferative activity against human HCT-116 cells assessed as inhibition of cell growth. In kind it is functional, cell-based.
Experiment [2] deals with T1, Histone deacetylase 1 (Homo sapiens, UniProt Q13547). The experiment in a line: Inhibition of HDAC1 (unknown origin).
Experiment [3] has as its target T2, Histone deacetylase 2 (Homo sapiens, UniProt Q92769). The experiment in a line: Inhibition of HDAC2 (unknown origin).
The next experiment has as its target Tubulin. The experiment in a line: Inhibition of tubulin polymerization (unknown origin). It is filed as protein-complex assay, Homo sapiens.
The test system of experiment [4] is MGC-803. Briefly: Antiproliferative activity against human MGC-803 cells assessed as inhibition of cell growth. In kind it is functional, cell-based.
In a further experiment the test system is KYSE-450. Briefly: Antiproliferative activity against human KYSE-450 cells assessed as inhibition of cell growth. In kind it is functional, cell-based.
Experiment [5] concerns MCF7. Briefly: Antiproliferative activity against human MCF7 cells assessed as inhibition of cell growth incubated for 48 hrs by CCK-8 assay. It is filed as functional, cell-based. As to conditions: MCF7, 48 h. (In general: Tetrazolium assays rely on reduction of a dye to a coloured formazan, in cell work by metabolically active cells.)
The subject of experiment [6] is HCT-116. The experiment in a line: Antitumor activity against human HCT-116 cells xenografted in BALB/c mouse assessed tumor growth inhibition at 150 mg/kg, po bid measured for every 3 days. In kind it is functional. The conditions noted are these: HCT-116, 72 h, time 3 day, read-out: TGI.
In the next experiment the test system is HepG2. The experiment in a line: Cytotoxicity against human HepG2 cells assessed as inhibition of cell growth. In kind it is functional, cell-based.
The target of experiment [7] is Protein deacetylase HDAC6 (Homo sapiens, UniProt Q9UBN7). Briefly: Inhibition of HDAC6 (unknown origin).
Sequence of Protein deacetylase HDAC6 (Q9UBN7 whole entry): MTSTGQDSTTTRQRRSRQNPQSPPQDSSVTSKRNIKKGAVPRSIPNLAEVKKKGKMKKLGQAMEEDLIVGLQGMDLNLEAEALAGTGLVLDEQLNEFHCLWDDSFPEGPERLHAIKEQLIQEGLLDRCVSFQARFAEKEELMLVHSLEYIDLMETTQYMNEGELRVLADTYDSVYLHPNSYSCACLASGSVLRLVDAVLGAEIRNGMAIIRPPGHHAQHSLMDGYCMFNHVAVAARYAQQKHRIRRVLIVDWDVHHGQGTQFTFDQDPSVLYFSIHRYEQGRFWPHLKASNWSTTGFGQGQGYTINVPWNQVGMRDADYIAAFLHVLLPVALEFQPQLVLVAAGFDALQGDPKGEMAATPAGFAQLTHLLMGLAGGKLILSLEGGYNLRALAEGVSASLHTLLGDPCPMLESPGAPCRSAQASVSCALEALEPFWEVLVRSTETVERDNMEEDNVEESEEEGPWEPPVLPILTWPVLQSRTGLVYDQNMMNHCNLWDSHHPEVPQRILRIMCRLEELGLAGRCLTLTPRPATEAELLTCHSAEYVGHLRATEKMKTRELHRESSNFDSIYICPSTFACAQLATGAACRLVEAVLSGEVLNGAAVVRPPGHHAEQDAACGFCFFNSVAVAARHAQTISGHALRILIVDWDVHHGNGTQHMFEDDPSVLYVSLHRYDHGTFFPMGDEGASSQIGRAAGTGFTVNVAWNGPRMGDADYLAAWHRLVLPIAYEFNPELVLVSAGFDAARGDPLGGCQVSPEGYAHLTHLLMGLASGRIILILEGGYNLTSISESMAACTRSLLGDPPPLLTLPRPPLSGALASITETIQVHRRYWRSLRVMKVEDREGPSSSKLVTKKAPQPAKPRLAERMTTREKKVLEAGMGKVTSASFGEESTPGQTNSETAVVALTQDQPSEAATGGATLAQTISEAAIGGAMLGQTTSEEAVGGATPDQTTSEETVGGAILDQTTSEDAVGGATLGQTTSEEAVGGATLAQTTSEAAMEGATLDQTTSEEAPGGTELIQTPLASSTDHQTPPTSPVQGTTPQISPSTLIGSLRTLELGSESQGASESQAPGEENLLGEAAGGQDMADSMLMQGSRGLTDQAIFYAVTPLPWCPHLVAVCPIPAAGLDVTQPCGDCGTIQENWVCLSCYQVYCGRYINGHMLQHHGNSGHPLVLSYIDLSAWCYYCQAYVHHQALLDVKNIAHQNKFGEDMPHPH
For experiment [8], the system named is MGC-803. Briefly: Cytotoxicity against human MGC-803 cells assessed as inhibition of cell growth. It is filed as functional, cell-based.
Experiment [9] deals with HeLa. The experiment in a line: Cytotoxicity against human HeLa cells assessed as inhibition of cell growth. It is filed as functional, cell-based.
Another experiment deals with U-937. Briefly: Cytotoxicity against human U-937 cells assessed as inhibition of cell growth. It is filed as functional, cell-based.
In experiment [10] the test system is MCF7. The experiment in a line: Cytotoxicity against human MCF7 cells assessed as inhibition of cell growth. It is filed as functional, cell-based.
For experiment [11], the target named is Bromodomain-containing protein 4 (Homo sapiens, UniProt O60885). The experiment in a line: Inhibition of BRD4 BD1 (unknown origin).
Experiment [12] concerns the target T3, Histone deacetylase 3 (Homo sapiens, UniProt O15379). The experiment in a line: Inhibition of C-terminl his-tagged human recombinant HDAC3 (1 to 428 residues) expressed in Sf9 cells using fluorogenic Boc-Lys(Ac)-AMC as substrate incubated for 90 mins by Synergy H1 plate reader analysis.
For experiment [13], the target named is T2, Histone deacetylase 2. Briefly: Inhibition of full length C-terminal FLAG-tagged human recombinant HDAC2 (1 to 488 residues) expressed in Sf9 cells using fluorogenic Boc-Lys(Ac)-AMC as substrate incubated for 90 mins by Synergy H1 plate reader analysis.
Experiment [14] addresses Macrophage migration inhibitory factor (Homo sapiens, UniProt P14174). The experiment in a line: Inhibition of MIF (unknown origin) tautomerase activity incubated for 10 mins by microplate reader analysis.
Experiment [15] has as its target T1, Histone deacetylase 1. Briefly: Inhibition of full length C-terminal his6-tagged human recombinant HDAC1 (1 to 482 residues) expressed in Sf9 cells using fluorogenic Boc-Lys(Ac)-AMC as substrate incubated for 90 mins by Synergy H1 plate reader analysis.
A further experiment relates to HEL. Briefly: Antiproliferative activity against human HEL cells assessed as inhibition of cell growth incubated for 48 hrs by MTT assay. It is filed as functional, cell-based.
Experiment [16] deals with T2, Histone deacetylase 2. Briefly: Inhibition of HDAC2 in human HeLa nuclear extract using Boc-Lys(Ac)-AMC or Boc-Lys(Tfa)-AMC as substrate preincubated for 5 mins followed by substrate addition and measured after 30 mins by fluorescence assay. In kind it is cell-free.
The target in experiment [17] is T3, Histone deacetylase 3. The experiment in a line: Inhibition of HDAC3 in human HeLa nuclear extract using Boc-Lys(Ac)-AMC or Boc-Lys(Tfa)-AMC as substrate preincubated for 5 mins followed by substrate addition and measured after 30 mins by fluorescence assay. In kind it is cell-free.
In experiment [18] the test system is HeLa. Briefly: Antiproliferative activity against human HeLa cells assessed as inhibition of cell growth incubated for 48 hrs by MTT assay. In kind it is functional, cell-based.
The next experiment deals with Jurkat. Briefly: Antiproliferative activity against human Jurkat cells assessed as inhibition of cell growth incubated for 48 hrs by MTT assay. It is filed as functional, cell-based.
The next experiment has as its system A549. Briefly: Antiproliferative activity against human A549 cells assessed as inhibition of cell growth incubated for 48 hrs by MTT assay. In kind it is functional, cell-based. As to conditions: A549, 48 h.
The next experiment deals with MOLT-4. The experiment in a line: Antiproliferative activity against human MOLT-4 cells assessed as inhibition of cell growth incubated for 48 hrs by MTT assay. In kind it is functional, cell-based. The conditions noted are these: MOLT-4, 48 h.
The test system of the next experiment is PC-3. The experiment in a line: Antiproliferative activity against human PC-3 cells assessed as inhibition of cell growth incubated for 48 hrs by MTT assay. In kind it is functional, cell-based. The conditions noted are these: PC-3, 48 h.
In experiment [19] the test system is HCT-116. Briefly: Antiproliferative activity against human HCT-116 cells assessed as inhibition of cell growth incubated for 48 hrs by MTT assay. It is filed as functional, cell-based. As to conditions: HCT-116, 48 h.
Experiment [20] addresses T1, Histone deacetylase 1. Briefly: Inhibition of HDAC1 in human HeLa nuclear extract using Boc-Lys(Ac)-AMC or Boc-Lys(Tfa)-AMC as substrate preincubated for 5 mins followed by substrate addition and measured after 30 mins by fluorescence assay. In kind it is cell-free.
The test system of the next experiment is RPMI-8226. The experiment in a line: Antiproliferative activity against human RPMI-8226 cells assessed as inhibition of cell growth incubated for 72 hrs by XTT assay. In kind it is functional, cell-based. As to conditions: RPMI-8226, 72 h.
The target in experiment [21] is Histone deacetylase (Homo sapiens) (UniProt Q13547+O15379+Q9UBN7+Q92769+Q9UQL6+Q8WUI4+Q9BY41+Q96DB2+P56524+Q9UKV0+Q969S8). Briefly: Inhibition of HDAC in human RPMI-8226 cells at 10 uM incubated for 8 hrs relative to control. It is filed as cell-based.
Experiment [22] is described as follows: Antiproliferative activity against human Bortezomib-resistant RPMI-8226 cells assessed as inhibition of cell growth incubated for 72 hrs by XTT assay. It is filed as functional, cell-based. The conditions noted are these: Bortezomib-resistant RPMI-8226, 72 h.
The target of another experiment is Histone deacetylase. Briefly: Inhibition of HDAC (unknown origin). It is filed as protein assay, Homo sapiens.
The next experiment deals with K562. Briefly: Antiproliferative activity against human K562 cells assessed as inhibition of cell growth by MTT assay. In kind it is functional, cell-based.

T2 sequence (Q92769 whole entry): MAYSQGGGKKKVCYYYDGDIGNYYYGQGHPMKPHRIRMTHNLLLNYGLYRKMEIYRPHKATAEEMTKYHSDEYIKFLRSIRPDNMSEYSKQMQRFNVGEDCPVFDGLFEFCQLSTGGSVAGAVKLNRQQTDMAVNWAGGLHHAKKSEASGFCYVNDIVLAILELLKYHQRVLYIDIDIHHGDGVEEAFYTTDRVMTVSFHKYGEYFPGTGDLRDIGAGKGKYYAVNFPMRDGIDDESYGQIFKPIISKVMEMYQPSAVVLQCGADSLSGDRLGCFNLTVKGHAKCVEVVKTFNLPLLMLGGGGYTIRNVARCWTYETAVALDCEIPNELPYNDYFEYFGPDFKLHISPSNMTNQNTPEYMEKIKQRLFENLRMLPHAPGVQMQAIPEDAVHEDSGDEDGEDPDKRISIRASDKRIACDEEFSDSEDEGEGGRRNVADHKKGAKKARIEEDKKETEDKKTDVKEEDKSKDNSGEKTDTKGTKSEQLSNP
T1 sequence (Q13547 whole entry): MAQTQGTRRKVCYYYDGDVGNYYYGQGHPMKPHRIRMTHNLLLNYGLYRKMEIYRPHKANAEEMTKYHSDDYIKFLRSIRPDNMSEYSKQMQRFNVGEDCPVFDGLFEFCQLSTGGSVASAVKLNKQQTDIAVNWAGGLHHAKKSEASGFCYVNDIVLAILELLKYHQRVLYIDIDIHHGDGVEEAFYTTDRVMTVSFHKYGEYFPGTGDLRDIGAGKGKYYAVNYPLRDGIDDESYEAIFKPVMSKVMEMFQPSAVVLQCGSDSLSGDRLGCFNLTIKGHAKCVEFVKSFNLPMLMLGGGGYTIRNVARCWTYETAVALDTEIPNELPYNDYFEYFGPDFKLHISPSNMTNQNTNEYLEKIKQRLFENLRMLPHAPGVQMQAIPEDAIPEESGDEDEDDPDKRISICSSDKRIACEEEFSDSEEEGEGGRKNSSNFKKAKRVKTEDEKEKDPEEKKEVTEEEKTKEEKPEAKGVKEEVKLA
T3 sequence (O15379 whole entry, the tested form may be a part): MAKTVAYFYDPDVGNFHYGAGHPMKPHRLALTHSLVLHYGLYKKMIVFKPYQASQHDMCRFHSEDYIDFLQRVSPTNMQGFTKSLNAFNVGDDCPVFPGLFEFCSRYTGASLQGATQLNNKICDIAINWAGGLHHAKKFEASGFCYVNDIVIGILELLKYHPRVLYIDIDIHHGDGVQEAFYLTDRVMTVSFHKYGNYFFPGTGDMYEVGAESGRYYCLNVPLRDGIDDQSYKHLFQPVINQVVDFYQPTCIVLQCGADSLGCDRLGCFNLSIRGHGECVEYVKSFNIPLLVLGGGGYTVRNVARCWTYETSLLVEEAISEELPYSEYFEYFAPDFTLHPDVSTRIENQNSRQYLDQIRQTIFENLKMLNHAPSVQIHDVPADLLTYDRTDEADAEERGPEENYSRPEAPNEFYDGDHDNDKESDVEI
Sequence of Macrophage migration inhibitory factor (P14174 whole entry, the tested form may be a part): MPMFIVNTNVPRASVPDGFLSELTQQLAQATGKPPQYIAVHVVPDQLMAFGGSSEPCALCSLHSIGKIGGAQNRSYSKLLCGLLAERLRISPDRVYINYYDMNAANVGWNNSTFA

With `CN1c2ccc(NCc3ccc(C(=O)Nc4ccccc4N)cc3)cc2C(=O)N2CCc3c([nH]c4ccccc34)[C@H]21`, the values for the IC50 in the experiment with HCT-116 [1], against Histone deacetylase 1 [2] and against Histone deacetylase 2 [3] were 2760 nM, 1510 nM and 6250 nM, respectively.
`COc1ccc(CN(C(=O)Cc2ccc(C(=O)Nc3ccccc3N)cc2)c2cc(OC)c(OC)c(OC)c2)cc1O`: the IC50 – broadly, the concentration that inhibits the measured activity by half – with HCT-116 [1] was found to be 172 nM; against Histone deacetylase 1 [2], 525 nM; on Tubulin it was 3640 nM; in the experiment on MGC-803 [4], 30 nM; in the experiment on KYSE-450 it was 254 nM.
On to `CN1c2ccccc2C(=O)N2[C@H](C(=O)Nc3ccc(C(=O)Nc4ccccc4N)cc3)Cc3c([nH]c4ccccc34)[C@@H]12`, for which, in the experiment on MCF7 [5], the IC50 was 18 nM. For the same compound, the inhibition in vivo at 150 mg/kg in the experiment with HCT-116 [6] came to 75.2%.
As for `COc1cc2c(cc1OCc1ccc(C(=O)Nc3ccccc3N)cc1)CC[C@@H]1[C@H]3CC[C@@H](O)[C@]3(C)CC[C@@H]21`, the IC50 in the experiment on HepG2 is 370 nM; in experiment [7], 120 nM; with MGC-803 [8], 370 nM; with HeLa [9], 370 nM; on Histone deacetylase 2 [3], 60 nM; with U-937, 371 nM. Besides, the IC50 in the experiment on MCF7 [10] came out at 370 nM.
In experiment [11], `Cc1sc2c(c1C)C(c1ccc(Cl)cc1)=N[C@@H](CC(=O)Nc1ccc(C(=O)Nc3ccccc3N)cc1)c1nnc(C)n1-2` yielded an IC50 of 729 nM.
For the compound `COc1ccc2[nH]c3c(c2c1)CCN1C(=O)c2cc(NCc4ccc(C(=O)Nc5ccccc5N)cc4)ccc2N(C)[C@H]31`, the IC50 in the experiment with HCT-116 [1] came out at 7820 nM; at Histone deacetylase 1 [2] it was 2660 nM; against Histone deacetylase 2 [3], 9370 nM.
With `Nc1ccccc1NC(=O)c1ccc(NC(=O)Cc2ccc(N3Cc4ccc(O)cc4OC3=O)cc2)cc1`, the IC50 came out at 600 nM at Histone deacetylase 3 [12], 1100 nM on Histone deacetylase 2 [13], 180 nM in experiment [14] and 200 nM at Histone deacetylase 1 [15].
Consider `Nc1ccccc1NC(=O)CCCCCCCOc1no[n+]([O-])c1S(=O)(=O)c1ccccc1`, for which the concentration for half-maximal inhibition (IC50) in the experiment with HEL was 420 nM; at Histone deacetylase 2 [16], 1200 nM; on Histone deacetylase 3 [17], 500 nM; in the experiment on HeLa [18] it was 1560 nM; with Jurkat, 470 nM; in the experiment on A549, 1550 nM. Further, the IC50 came to 720 nM in the experiment on MOLT-4, 1920 nM with PC-3, 790 nM in the experiment on HCT-116 [19] and 660 nM at Histone deacetylase 1 [20].
Take `CC(C)C[C@@H](NC(=O)[C@H](Cc1ccccc1)NC(=O)c1ccc(C(=O)Nc2ccccc2N)cc1)B1OC2CC3CC(C3(C)C)[C@@]2(C)O1` (stereo not given in full): the IC50 was determined as 37.1 nM with RPMI-8226 and 112 nM in experiment [22]. In addition, the inhibition (as a rule, the relative decrease from the control value, in per cent) in experiment [21] was 33%.
As to `CCN1CCN(c2cc(Nc3ncc(C(=O)Nc4ccc(F)cc4N)s3)ncn2)CC1`, the IC50 is 810 nM at Histone deacetylase and 2620 nM in the experiment with K562.
